Test results as given in patent US20230416249A1, “N-[2-({4-[3-(ANILINO)-4-OXO-4,5,6,7-TETRAHYDRO-1H-PYRROLO[3,2-C]PYRIDIN-2-YL]PYRIDIN-3-YL)OXY)ETHYL]PROP-2-ENAMIDE DERIVATIVES AND SIMILAR COMPOUNDS AS EGFR INHIBITORS FOR THE TREATMENT OF CANCER” (Bayer Aktiengesellschaft, priority 2020, published 2023).
Several values for one entry are separate records, joined by “and”; a condition that tells them apart may be missing. Equal values may be shown once.

Columns and labels:
[1] = molecular target: T1, mutEGFR (D770_N771insSVD) (Homo sapiens, UniProt P00533, DUP768-770); experiment: Exon20-Mutant-EGFR(D770_N771insSVD) kinase assay (TR-FRET); type: biochemical; conditions: GST-EGFR ins SVD, 2 mM ATP, 15 min pre-incubation
T1 construct: GST-EGFR #3 (SVD between D770 and N771); made in house; host or cells: Sf9 insect cells (baculovirus)
Description: Inhibitory activity of compounds of the present invention against an Epidermal Growth Factor Receptor (EGFR) with an insertion of the amino acids sequence SVD between D770 and N771 was quantified employing the TR-FRET based kinase activity assay as described in the following paragraphs.
A recombinant fusion protein of N-terminal Glutathion-S-Transferase (GST) and a fragment of human EGFR variant (amino acids R669 to A1210 with insertion of the amino acids sequence SVD between D770 and N771 (“EGFR ins SVD”), expressed in Sf9 insect cells and purified via affinity chromatography using Glutathion Sepharose as described above, was used as a kinase. As substrate for the kinase reaction the biotinylated peptide biotin-Ahx-AEEEEYFELVAKKK (SEQ ID NO: 6) (C-terminus in amide form) was used which can be purchased e.g. form the company Biosynthan GmbH (Berlin-Buch, Germany).
For the assay 50 nl of a 100-fold concentrated solution of the test compound in DMSO was pipetted into either a black low volume 384 well microtiter plate or a black 1536 well microtiter plate (both Greiner Bio-One, Frickenhausen, Germany), 2 μl of a solution of EGFR in aqueous assay buffer [50 mM Hepes pH 7.0, 10 mM MgCl2, 1 mM dithiothreitol, 0.5 mM EGTA, 0.3 mM activated sodium ortho-vanadate, 0.005% (w/v) bovine serum albumin, 0.005% (v/v) Tween-20] were added and the mixture was incubated for 15 min at 22° C. to allow pre binding of the test compounds to the enzyme before the start of the kinase reaction. Then the kinase reaction was started by the addition of 3 μL of a solution of adenosine tri phosphate (ATP, 3.33 mM=>final conc. in the 5 μL assay volume is 2 mM) and substrate (1.67 μM=>final conc. in the 5 μL assay volume is 1 μM) in assay buffer and the resulting mixture was incubated for a reaction time of 30 min at 22° C. The concentration of EGFR was adjusted depending of the activity of the enzyme lot and was chosen appropriate to have the assay in the linear range, typical concentration was 15 pg/μl. The reaction was stopped by the addition of 3 μl of a solution of HTRF detection reagents (83.3 nM streptavidine-XL665 [Cisbio Bioassays, Codolet, France] and 1.67 nM PT66-Tb-Cryptate, a terbium-cryptate labelled anti-phospho-tyrosine antibody from Cisbio Bioassays [instead of the PT66 Tb cryptate PT66 Eu Chelate from Perkin Elmer can also be used]) in an aqueous EDTA-solution (133.3 mM EDTA, 0.2% (w/v) bovine serum albumin in 50 mM HEPES pH 7.5).
The resulting mixture was incubated 1 h at 22° C. to allow the binding of the biotinylated phosphorylated peptide to the streptavidine-XL665 and the PT66-Tb-Cryptate. Subsequently the amount of phosphorylated substrate was evaluated by measurement of the resonance energy transfer from the PT66-Tb-Cryptate to the streptavidine-XL665. Therefore, the fluorescence emissions at 620 nm and 665 nm after excitation at 337 nm were measured in a HTRF reader, e.g. a Pherastar (BMG Labtechnologies, Offenburg, Germany) or a Viewlux (Perkin-Elmer). The ratio of the emissions at 665 nm and at […] was taken as the measure for the amount of phosphorylated substrate. The data were normalised (enzyme reaction without inhibitor=0% inhibition, all other assay components but no enzyme=100% inhibition).

[2] = molecular target: Ba/F3-EGFR-insSVD cells (Homo sapiens, UniProt P00533, DUP768-770, cells depend on it); experiment: Ba/F3 cell survival assay (Cell Titer-Glo), EGFR-insSVD; type: cell-based; conditions: 48 h, without IL-3, 10 ng/mL EGF; read-out: BA/F3 (insSVD) IC50
Method: (§1) 293T cells from ATCC were transfected with pBABEpuro expression constructs for WT EGFR or EGFR-insSVD, or EGFR-insSVD T790M, and pCL-Eco packaging vector using Fugene-6 transfection reagent from Promega. Plates were incubated at 37° C. for 48 h. Retrovirus was harvested by filtering the media supernatant through a 0.45 μm filter.
(§2) Ba/F3 cells purchased from DSMZ were grown in RPMI+10% FBS+10 ng/mL IL-3 and infected with filtered retroviral supernatant at a 1:2 dilution. Polybrene was added to a concentration of 8 μg/mL, plates were spun for 90 min, and incubated for 16 h at 37° C. 2 μg/mL puromycin was added to the infected cells 24 h after infection and cells were continually grown in the presence of puromycin and 10 ng/mL IL-3. Following stably expressing Ba/F3 cell lines were generated: Ba/F3-EGFR-WT, Ba/F3-EGFR-insSVD, Ba/F3-EGFR-insSVD T790M, (Ba/F3—vector-control).
(§3) For cell survival assays, Ba/F3 cells were grown to a density of 1-2 million cells per mL, spun down and resuspended in media without IL-3, and replated at a concentration 200,000-500,000 cells per mL. The cells ectopically expressing WT EGFR, EGFR-insSVD, or EGFR-insSVD T790M were plated with 10 ng/mL Millipore Culture grade EGF. The cells ectopically expressing pBABEpuro empty vector were plated with 10 ng/mL IL-3.
(§4) 2 days later, cells were plated in 50 μL in a 384 well plate at a concentration of 4000 cells per well for cells assayed in the absence of IL-3 and 2000 cells per well for cells assayed in the presence of IL-3. 100 nL of compound was added to each well using a 100 nL pin head, and plates were incubated at 37° C. for 48 h.
(§5) Cell viability was measured by adding 20 μL of Cell Titer-Glo Luminescent Cell Viability Reagent diluted 1:3 in PBS. Plates were sealed with Perkin Elmer Top-Seal, inverted several times to mix, and immediately centrifuged at 1000 rpm for 2 min. Plates were incubated in low light conditions for 8-10 min and luminescence was measured.

[3] = molecular target: Ba/F3-EGFR-WT cells (Homo sapiens, UniProt P00533); experiment: Ba/F3 cell survival assay (Cell Titer-Glo), WT EGFR; type: cell-based; conditions: 48 h, without IL-3, 10 ng/mL EGF; read-out: BA/F3 (wild type) IC50
Method: as §1, §2, §3, §4, §5

[4] = molecular target: Ba/F3-EGFR-L858R T790M cells (Homo sapiens, UniProt P00533, T790M/L858R, cells depend on it); experiment: Ba/F3 cell survival assay (Cell Titer-Glo), EGFR-L858R T790M; type: cell-based; conditions: 48 h, without IL-3, 10 ng/mL EGF; read-out: BA/F3 (L858R T790M) IC50
Method: as §1, with “EGFR-L858R, EGFR-E746_A750del, EGFR-L858R T790M,” for “WT EGFR”, “EGFR-E746_A750del” for “EGFR-insSVD, or EGFR-insSVD”
as §2, with “Ba/F3-EGFR-L858R, Ba/F3-EGFR-E746_A750del, Ba/F3-EGFR-L858R” for “Ba/F3-EGFR-WT, Ba/F3-EGFR-insSVD, Ba/F3-EGFR-insSVD”, “or Ba/F3-EGFR-E746_A750del T790M.” for “(Ba/F3—vector-control).”
as §3, with “EGFR-L858R, EGFR-E746_A750del, EGFR-L858R T790M,” for “WT EGFR, EGFR-insSVD,”, “EGFR-E746_A750del” for “EGFR-insSVD”
as §4, §5

[5] = molecular target: Ba/F3-EGFR-E746_A750del T790M cells (Homo sapiens, UniProt P00533, DEL746-750/T790M, cells depend on it); experiment: Ba/F3 cell survival assay (Cell Titer-Glo), EGFR-E746_A750del T790M; type: cell-based; conditions: 48 h, without IL-3, 10 ng/mL EGF; read-out: BA/F3 (E746_A750del T790M) IC50
Method: as §1, with “EGFR-L858R, EGFR-E746_A750del, EGFR-L858R T790M,” for “WT EGFR”, “EGFR-E746_A750del” for “EGFR-insSVD, or EGFR-insSVD”
as §2, with “Ba/F3-EGFR-L858R, Ba/F3-EGFR-E746_A750del, Ba/F3-EGFR-L858R” for “Ba/F3-EGFR-WT, Ba/F3-EGFR-insSVD, Ba/F3-EGFR-insSVD”, “or Ba/F3-EGFR-E746_A750del T790M.” for “(Ba/F3—vector-control).”
as §3, with “EGFR-L858R, EGFR-E746_A750del, EGFR-L858R T790M,” for “WT EGFR, EGFR-insSVD,”, “EGFR-E746_A750del” for “EGFR-insSVD”
as §4, §5

Chain of Ba/F3-EGFR-L858R T790M cells (P00533 whole entry T790M/L858R): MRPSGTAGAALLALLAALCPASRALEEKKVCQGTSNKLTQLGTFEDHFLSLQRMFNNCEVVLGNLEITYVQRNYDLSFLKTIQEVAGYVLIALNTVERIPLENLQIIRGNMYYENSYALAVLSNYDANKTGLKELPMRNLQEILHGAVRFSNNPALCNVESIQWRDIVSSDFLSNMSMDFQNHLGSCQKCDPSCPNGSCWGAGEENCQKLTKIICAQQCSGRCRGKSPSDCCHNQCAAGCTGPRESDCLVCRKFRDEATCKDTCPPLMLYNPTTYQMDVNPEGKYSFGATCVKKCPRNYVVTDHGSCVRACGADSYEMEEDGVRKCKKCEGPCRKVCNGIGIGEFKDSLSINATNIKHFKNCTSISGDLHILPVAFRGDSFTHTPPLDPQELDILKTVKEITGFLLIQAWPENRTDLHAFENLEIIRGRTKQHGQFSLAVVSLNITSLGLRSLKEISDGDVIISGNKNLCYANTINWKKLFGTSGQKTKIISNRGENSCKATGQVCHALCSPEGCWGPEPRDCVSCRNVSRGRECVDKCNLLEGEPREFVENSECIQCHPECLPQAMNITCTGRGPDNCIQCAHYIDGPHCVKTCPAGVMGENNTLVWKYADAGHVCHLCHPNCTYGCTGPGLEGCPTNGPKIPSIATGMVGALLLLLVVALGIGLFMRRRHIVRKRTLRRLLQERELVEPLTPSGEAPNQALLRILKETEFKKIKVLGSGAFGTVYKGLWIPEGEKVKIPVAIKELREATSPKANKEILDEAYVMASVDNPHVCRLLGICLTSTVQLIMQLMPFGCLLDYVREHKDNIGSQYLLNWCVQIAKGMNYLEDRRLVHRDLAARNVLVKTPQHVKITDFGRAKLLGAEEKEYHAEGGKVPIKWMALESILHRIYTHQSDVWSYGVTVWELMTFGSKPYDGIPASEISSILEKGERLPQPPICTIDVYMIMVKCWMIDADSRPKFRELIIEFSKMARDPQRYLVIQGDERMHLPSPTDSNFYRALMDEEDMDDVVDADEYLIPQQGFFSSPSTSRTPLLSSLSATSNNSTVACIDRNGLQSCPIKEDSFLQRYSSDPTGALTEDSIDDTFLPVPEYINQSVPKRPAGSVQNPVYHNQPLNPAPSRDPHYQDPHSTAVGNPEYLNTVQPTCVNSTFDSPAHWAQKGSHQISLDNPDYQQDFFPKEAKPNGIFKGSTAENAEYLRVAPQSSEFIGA
Chain of Ba/F3-EGFR-E746_A750del T790M cells (P00533 with tags, fused parts or gaps DEL746-750/T790M): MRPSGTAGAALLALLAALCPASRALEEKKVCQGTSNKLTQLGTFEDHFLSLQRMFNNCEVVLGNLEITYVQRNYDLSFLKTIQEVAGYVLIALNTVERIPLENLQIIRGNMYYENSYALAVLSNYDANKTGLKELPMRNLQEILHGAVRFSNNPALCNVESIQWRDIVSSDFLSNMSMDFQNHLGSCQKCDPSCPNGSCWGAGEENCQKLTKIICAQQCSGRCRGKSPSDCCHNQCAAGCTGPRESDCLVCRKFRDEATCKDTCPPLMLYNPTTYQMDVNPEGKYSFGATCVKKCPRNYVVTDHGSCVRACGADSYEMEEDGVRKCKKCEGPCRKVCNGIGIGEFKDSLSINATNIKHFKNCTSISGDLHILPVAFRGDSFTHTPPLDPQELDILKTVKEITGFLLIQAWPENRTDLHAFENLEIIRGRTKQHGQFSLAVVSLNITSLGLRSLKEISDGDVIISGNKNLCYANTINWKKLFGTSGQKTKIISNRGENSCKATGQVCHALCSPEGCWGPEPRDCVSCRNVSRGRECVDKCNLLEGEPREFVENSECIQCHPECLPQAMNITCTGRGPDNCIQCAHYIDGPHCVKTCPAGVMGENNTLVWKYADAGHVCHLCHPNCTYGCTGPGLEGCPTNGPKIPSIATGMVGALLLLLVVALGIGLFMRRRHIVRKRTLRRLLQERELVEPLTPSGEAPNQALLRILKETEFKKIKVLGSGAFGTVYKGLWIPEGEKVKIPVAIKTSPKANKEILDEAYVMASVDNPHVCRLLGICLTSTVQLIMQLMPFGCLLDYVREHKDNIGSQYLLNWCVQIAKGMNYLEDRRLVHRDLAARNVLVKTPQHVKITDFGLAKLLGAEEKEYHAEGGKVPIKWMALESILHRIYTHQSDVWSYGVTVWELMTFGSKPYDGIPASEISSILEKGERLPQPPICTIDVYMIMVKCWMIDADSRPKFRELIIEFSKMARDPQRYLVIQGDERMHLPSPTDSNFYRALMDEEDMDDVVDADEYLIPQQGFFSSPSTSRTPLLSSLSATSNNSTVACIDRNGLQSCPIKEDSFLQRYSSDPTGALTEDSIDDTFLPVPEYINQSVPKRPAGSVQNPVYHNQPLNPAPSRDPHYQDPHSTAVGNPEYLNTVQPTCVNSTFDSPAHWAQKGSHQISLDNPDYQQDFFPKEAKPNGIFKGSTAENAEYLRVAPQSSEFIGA
Chain of Ba/F3-EGFR-insSVD cells (P00533 with tags, fused parts or gaps DUP768-770): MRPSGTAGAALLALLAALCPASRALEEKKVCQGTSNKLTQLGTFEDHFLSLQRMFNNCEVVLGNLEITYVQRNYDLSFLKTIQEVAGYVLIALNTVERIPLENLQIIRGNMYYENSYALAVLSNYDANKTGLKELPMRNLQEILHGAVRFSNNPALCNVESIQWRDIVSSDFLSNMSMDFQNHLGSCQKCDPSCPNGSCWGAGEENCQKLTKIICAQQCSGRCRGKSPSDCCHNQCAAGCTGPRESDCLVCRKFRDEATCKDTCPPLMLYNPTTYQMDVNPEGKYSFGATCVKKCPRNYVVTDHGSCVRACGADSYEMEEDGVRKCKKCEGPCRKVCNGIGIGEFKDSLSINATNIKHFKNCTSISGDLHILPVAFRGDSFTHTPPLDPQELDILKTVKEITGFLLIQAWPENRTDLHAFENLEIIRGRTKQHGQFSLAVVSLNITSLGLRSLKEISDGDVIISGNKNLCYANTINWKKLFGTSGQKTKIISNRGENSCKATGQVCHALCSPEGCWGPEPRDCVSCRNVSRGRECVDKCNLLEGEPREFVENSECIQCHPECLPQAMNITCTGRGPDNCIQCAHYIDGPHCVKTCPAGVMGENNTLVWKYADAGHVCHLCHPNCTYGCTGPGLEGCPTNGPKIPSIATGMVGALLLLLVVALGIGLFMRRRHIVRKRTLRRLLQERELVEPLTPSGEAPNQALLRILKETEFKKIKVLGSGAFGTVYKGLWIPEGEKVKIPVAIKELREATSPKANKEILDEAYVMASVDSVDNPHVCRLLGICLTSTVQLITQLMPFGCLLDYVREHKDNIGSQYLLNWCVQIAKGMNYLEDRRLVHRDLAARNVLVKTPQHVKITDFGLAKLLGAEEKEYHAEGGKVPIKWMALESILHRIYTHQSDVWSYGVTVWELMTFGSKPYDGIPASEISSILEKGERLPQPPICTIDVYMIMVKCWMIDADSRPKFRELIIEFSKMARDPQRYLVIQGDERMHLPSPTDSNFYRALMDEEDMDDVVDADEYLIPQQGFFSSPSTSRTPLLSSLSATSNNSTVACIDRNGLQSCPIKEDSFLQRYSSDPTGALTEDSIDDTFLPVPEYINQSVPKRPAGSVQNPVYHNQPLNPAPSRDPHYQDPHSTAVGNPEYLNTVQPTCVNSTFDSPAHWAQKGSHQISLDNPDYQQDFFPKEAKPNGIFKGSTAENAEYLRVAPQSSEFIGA
Chain of Ba/F3-EGFR-WT cells (P00533 whole entry, change not shown): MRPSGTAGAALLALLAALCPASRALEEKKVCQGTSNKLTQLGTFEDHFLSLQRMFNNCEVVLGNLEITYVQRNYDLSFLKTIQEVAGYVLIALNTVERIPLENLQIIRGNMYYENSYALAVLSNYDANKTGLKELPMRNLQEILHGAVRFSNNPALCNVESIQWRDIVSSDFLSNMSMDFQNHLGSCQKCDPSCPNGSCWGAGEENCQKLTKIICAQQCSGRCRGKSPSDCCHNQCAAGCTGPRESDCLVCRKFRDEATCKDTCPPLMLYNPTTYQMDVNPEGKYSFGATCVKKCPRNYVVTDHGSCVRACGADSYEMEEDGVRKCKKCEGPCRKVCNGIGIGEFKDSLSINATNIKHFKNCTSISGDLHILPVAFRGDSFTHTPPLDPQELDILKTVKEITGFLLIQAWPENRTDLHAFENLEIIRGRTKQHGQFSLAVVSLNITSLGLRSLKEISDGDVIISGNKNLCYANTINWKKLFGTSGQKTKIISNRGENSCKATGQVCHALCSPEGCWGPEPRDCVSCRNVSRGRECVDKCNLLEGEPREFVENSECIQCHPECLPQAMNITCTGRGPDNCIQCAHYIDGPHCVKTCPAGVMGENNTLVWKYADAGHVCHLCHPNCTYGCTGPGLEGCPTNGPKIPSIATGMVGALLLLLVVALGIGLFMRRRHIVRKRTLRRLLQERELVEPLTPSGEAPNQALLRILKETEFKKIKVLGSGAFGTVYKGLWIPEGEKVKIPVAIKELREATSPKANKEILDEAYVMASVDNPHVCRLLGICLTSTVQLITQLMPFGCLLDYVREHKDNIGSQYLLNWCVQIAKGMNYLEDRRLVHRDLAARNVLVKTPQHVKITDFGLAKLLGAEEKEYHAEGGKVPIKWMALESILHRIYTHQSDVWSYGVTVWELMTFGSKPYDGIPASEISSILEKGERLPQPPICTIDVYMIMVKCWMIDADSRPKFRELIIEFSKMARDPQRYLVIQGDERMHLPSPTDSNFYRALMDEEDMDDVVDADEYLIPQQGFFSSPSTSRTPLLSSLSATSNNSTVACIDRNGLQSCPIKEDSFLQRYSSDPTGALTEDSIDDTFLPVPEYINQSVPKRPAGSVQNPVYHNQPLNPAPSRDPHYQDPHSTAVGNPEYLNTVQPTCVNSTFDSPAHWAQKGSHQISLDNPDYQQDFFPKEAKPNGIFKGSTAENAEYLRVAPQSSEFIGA

SMILES	IC50 [1]	GI50 [2]	GI50 [3]	GI50 [4]	GI50 [5]
C=CC(=O)NCCOc1cnccc1-c1[nH]c2c(c1Nc1cccc(Cl)c1OC)C(=O)NCC2 [Example 1, N-[2-({4-[3-(3-chloro-2-methoxyanilino)-4-oxo-4,5,6,7-tetrahydro-1H-pyrrolo[3,2-c]pyridin-2-yl]pyridin-3-yl}oxy)ethyl]prop-2-enamide]	0.155 nM	376 nM	3030 nM	> 1000 nM	> 1000 nM
C=CC(=O)NCCOc1cnccc1-c1[nH]c2c(c1Nc1cccc(F)c1C)C(=O)NCC2 [Example 2, N-[2-({4-[3-(3-fluoro-2-methylanilino)-4-oxo-4,5,6,7-tetrahydro-1H-pyrrolo[3,2-c]pyridin-2-yl]pyridin-3-yl}oxy)ethyl]prop-2-enamide]	0.386 nM	57.9 nM	907 nM	215 nM	25.2 nM
C=CC(=O)NCCOc1cnccc1-c1[nH]c2c(c1Nc1cccc(Cl)c1C)C(=O)NCC2 [Example 3, N-[2-({4-[3-(3-chloro-2-methylanilino)-4-oxo-4,5,6,7-tetrahydro-1H-pyrrolo[3,2-c]pyridin-2-yl]pyridin-3-yl}oxy)ethyl]prop-2-enamide]	0.265 nM	40.2 nM	566 nM	201 nM	32.6 nM
C=CC(=O)NCCCOc1cnccc1-c1[nH]c2c(c1Nc1cccc(Cl)c1OC)C(=O)NCC2 [Example 4, N-[3-({4-[3-(3-chloro-2-methoxyanilino)-4-oxo-4,5,6,7-tetrahydro-1H-pyrrolo[3,2-c]pyridin-2-yl]pyridin-3-yl}oxy)propyl]prop-2-enamide]	0.305 nM	519 nM	4420 nM	> 1000 nM	> 1000 nM
C=CC(=O)N(C)CCOc1cnccc1-c1[nH]c2c(c1Nc1cccc(Cl)c1OC)C(=O)NCC2 [Example 5, N-[2-({4-[3-(3-chloro-2-methoxyanilino)-4-oxo-4,5,6,7-tetrahydro-1H-pyrrolo[3,2-c]pyridin-2-yl]pyridin-3-yl}oxy)ethyl]-N-methylprop-2-enamide]	0.231 nM	5.77 nM	68 nM	12.9 nM	3.39 nM
C=CC(=O)N(C)CCOc1cnccc1-c1[nH]c2c(c1Nc1cccc(F)c1OC)C(=O)NCC2 [Example 6, N-[2-({4-[3-(3-fluoro-2-methoxyanilino)-4-oxo-4,5,6,7-tetrahydro-1H-pyrrolo[3,2-c]pyridin-2-yl]pyridin-3-yl}oxy)ethyl]-N-methylprop-2-enamide]	0.171 nM	8.94 nM	109 nM	26.4 nM	4.96 nM
C=CC(=O)N(C)CCOc1cnccc1-c1[nH]c2c(c1Nc1ccc(F)cc1)C(=O)NCC2 [Example 7, N-[2-({4-[3-(4-fluoroanilino)-4-oxo-4,5,6,7-tetrahydro-1H-pyrrolo[3,2-c]pyridin-2-yl]pyridin-3-yl}oxy)ethyl]-N-methylprop-2-enamide]	1.62 nM	146 nM	366 nM	274 nM	21.9 nM
COc1c(F)cccc1Nc1c(-c2ccncc2OCCN(C)C(=O)/C=C/CN(C)C)[nH]c2c1C(=O)NCC2 [Example 8, (2E)-4-(dimethylamino)-N-[2-({4-[3-(3-fluoro-2-methoxyanilino)-4-oxo-4,5,6,7-tetrahydro-1H-pyrrolo[3,2-c]pyridin-2-yl]pyridin-3-yl}oxy)ethyl]-N-methylbut-2-enamide]	0.554 nM	240 nM	4700 nM	> 1000 nM	370 nM
COc1c(Cl)cccc1Nc1c(-c2ccncc2OCCN(C)C(=O)/C=C/CN(C)C)[nH]c2c1C(=O)NCC2 [Example 9, (2E)-N-[2-({4-[3-(3-chloro-2-methoxyanilino)-4-oxo-4,5,6,7-tetrahydro-1H-pyrrolo[3,2-c]pyridin-2-yl]pyridin-3-yl}oxy)ethyl]-4-(dimethylamino)-N-methylbut-2-enamide]	2.48 nM	263 nM	4520 nM	731 nM and > 1000 nM	183 nM
C=CC(=O)N1CCC[C@H]1COc1cnccc1-c1[nH]c2c(c1Nc1cccc(Cl)c1OC)C(=O)NCC2 [Example 13, 3-(3-chloro-2-methoxyanilino)-2-(3-{[(2S)-1-(prop-2-enoyl)pyrrolidin-2-yl]methoxy}pyridin-4-yl)-1,5,6,7-tetrahydro-4H-pyrrolo[3,2-c]pyridin-4-one]	0.206 nM	6.69 nM	51.2 nM		
